# Reference: PubChem BioAssay AID248 (DTP/NCI, 2004)
# Several values for one entry are separate records, joined by “and”; a condition that tells them apart may be missing. Equal entries are not always repeated. Inconclusive results and toxic doses are left out. Square brackets hold non-standard residues; d marks the D form. Peptide text beside a SMILES is read from it. * marks the point of attachment. Cbz = O=C(OCc1ccccc1)*; Abu = CC[CH](N)C(=O)O; OBn = c1ccc(CO*)cc1
# Tested on: L1210 leukemia ip in BDF1 mice, survival T/C
# Assay: NCI In Vivo Anticancer Drug Screen. Data for tumor model L1210 Leukemia (intraperitoneal) in B6D2F1 (BDF1) mice
# Details: endpoint: mean survival time, higher = longer survival
# Method in brief: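 Mice bearing the transplanted tumor received compound or vehicle. Survival of the treated group was divided by that of the vehicle-treated control group to give the ratio.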
# [1] = dose: 25.0 mg/kg/injection, schedule: Q01DX009 (ip), vehicle: Klucel (hydroxypropylcellulose) (HPC)
# [2] = dose: 50.0 mg/kg/injection, schedule: Q01DX009 (ip), vehicle: Klucel (hydroxypropylcellulose) (HPC)
# [3] = dose: 100.0 mg/kg/injection, schedule: Q01DX001 (ip), vehicle: saline
# [4] = dose: 100.0 mg/kg/injection, schedule: Q01DX009 (ip), vehicle: Klucel (hydroxypropylcellulose) (HPC)
# [5] = dose: 100.0 mg/kg/injection, schedule: Q04DX003 (ip), vehicle: Klucel (hydroxypropylcellulose) (HPC)
# [6] = dose: 200.0 mg/kg/injection, schedule: Q01DX009 (ip), vehicle: Klucel (hydroxypropylcellulose) (HPC)
# [7] = dose: 200.0 mg/kg/injection, schedule: Q04DX003 (ip), vehicle: Klucel (hydroxypropylcellulose) (HPC)
# [8] = dose: 400.0 mg/kg/injection, schedule: Q01DX009 (ip), vehicle: Klucel (hydroxypropylcellulose) (HPC)
# [9] = dose: 400.0 mg/kg/injection, schedule: Q04DX003 (ip), vehicle: Klucel (hydroxypropylcellulose) (HPC)
# [10] = dose: 100.0 mg/kg/injection, schedule: Q01DX001 (ip), vehicle: Klucel (hydroxypropylcellulose) (HPC)
# [11] = dose: 200.0 mg/kg/injection, schedule: Q01DX001 (ip), vehicle: Klucel (hydroxypropylcellulose) (HPC)
# [12] = dose: 400.0 mg/kg/injection, schedule: Q01DX001 (ip), vehicle: Klucel (hydroxypropylcellulose) (HPC)
# [13] = dose: 100.0 mg/kg/injection, schedule: Q04DX002 (ip), vehicle: Klucel (hydroxypropylcellulose) (HPC)
# [14] = dose: 100.0 mg/kg/injection, schedule: Q04DX003 (ip), vehicle: saline with Tween-80
# [15] = dose: 200.0 mg/kg/injection, schedule: Q04DX003 (ip), vehicle: saline with Tween-80
# [16] = dose: 400.0 mg/kg/injection, schedule: Q04DX003 (ip), vehicle: saline with Tween-80
# [17] = dose: 100.0 mg/kg/injection, schedule: Q01DX009 (ip), vehicle: saline with Tween-80
compound,measurement,setting,value
COC1=C(Br)[C@H](O)[C@](O)(CC#N)C=C1Br,T/C,"dose: 12.5 mg/kg/injection, schedule: Q01DX009 (ip), vehicle: saline",97 % of control
same,T/C,"dose: 25.0 mg/kg/injection, schedule: Q01DX001 (ip), vehicle: Klucel (hydroxypropylcellulose) (HPC)",97 % of control
same,T/C,[1],101 % of control
same,T/C,"dose: 25.0 mg/kg/injection, schedule: Q01DX009 (ip), vehicle: saline",110 % of control
same,T/C,"dose: 44.0 mg/kg/injection, schedule: Q01DX001 (ip), vehicle: saline",103 % of control
same,T/C,"dose: 50.0 mg/kg/injection, schedule: Q01DX001 (ip), vehicle: Klucel (hydroxypropylcellulose) (HPC)",104 % of control
same,T/C,[2],94 % of control
same,T/C,"dose: 50.0 mg/kg/injection, schedule: Q01DX009 (ip), vehicle: saline",107 % of control
same,T/C,"dose: 66.0 mg/kg/injection, schedule: Q01DX001 (ip), vehicle: saline",106 % of control
same,T/C,[3],117 % of control and 229 % of control
same,T/C,[4],108 % of control
same,T/C,"dose: 100.0 mg/kg/injection, schedule: Q01DX009 (ip), vehicle: saline",91 % of control
same,T/C,"dose: 150.0 mg/kg/injection, schedule: Q01DX001 (ip), vehicle: saline",121 % of control
Clc1cc(Cl)c2c(c1)Cc1cc(Cl)cc(Cl)c1-2,T/C,[4],94 % of control
same,T/C,[5],92 % of control
same,T/C,[6],91 % of control
same,T/C,[7],89 % of control
same,T/C,[8],87 % of control
same,T/C,[9],102 % of control
O=C1OC(=O)C2C3OC(C(Cl)C3Cl)C12 (centres undefined),T/C,[4],106 % of control
same,T/C,[6],106 % of control
CCCCN(C)N=Nc1ccc(Cl)cc1C(N)=O,T/C,[10],102 % of control
same,T/C,[4],110 % of control
same,T/C,[5],109 % of control
same,T/C,[11],107 % of control
same,T/C,[6],105 % of control
same,T/C,[7],96 % of control
same,T/C,[12],98 % of control
same,T/C,[8],105 % of control
same,T/C,[9],93 % of control
CC(=O)/C=C/c1ccccc1O,T/C,"dose: 75.0 mg/kg/injection, schedule: Q04DX002 (ip), vehicle: gum acacia",98 % of control
same,T/C,"dose: 150.0 mg/kg/injection, schedule: Q04DX002 (ip), vehicle: gum acacia",100 % of control
same,T/C,"dose: 300.0 mg/kg/injection, schedule: Q04DX002 (ip), vehicle: gum acacia",100 % of control
O=C(O)c1cc(I)cc(I)c1I,T/C,[13],105 % of control
same,T/C,"dose: 200.0 mg/kg/injection, schedule: Q04DX002 (ip), vehicle: Klucel (hydroxypropylcellulose) (HPC)",88 % of control
same,T/C,"dose: 400.0 mg/kg/injection, schedule: Q04DX002 (ip), vehicle: Klucel (hydroxypropylcellulose) (HPC)",102 % of control
CCSC(C(Nc1ccc([N+](=O)[O-])cc1[N+](=O)[O-])C(O)C(O)C(O)CO)n1cc(C)c(=O)[nH]c1=O (centres undefined),T/C,"dose: 50.0 mg/kg/injection, schedule: Q01DX001 (ip), vehicle: saline",97 % of control
same,T/C,[3],100 % of control
same,T/C,"dose: 200.0 mg/kg/injection, schedule: Q01DX001 (ip), vehicle: saline",100 % of control
same,T/C,"dose: 400.0 mg/kg/injection, schedule: Q01DX001 (ip), vehicle: saline",100 % of control
CCC1(Cc2ccsc2)C(=O)NC(=O)NC1=O,T/C,"dose: 100.0 mg/kg/injection, schedule: Q01DX001 (ip), vehicle: carboxymethylcellulose (CMC)",103 % of control
same,T/C,"dose: 200.0 mg/kg/injection, schedule: Q01DX001 (ip), vehicle: carboxymethylcellulose (CMC)",94 % of control
same,T/C,"dose: 400.0 mg/kg/injection, schedule: Q01DX001 (ip), vehicle: carboxymethylcellulose (CMC)",100 % of control
O=C1c2ccccc2-c2ccccc2C12N=Nc1ccccc12 (centres undefined),T/C,"dose: 25.0 mg/kg/injection, schedule: Q04DX002 (ip), vehicle: Klucel (hydroxypropylcellulose) (HPC)",101 % of control
same,T/C,"dose: 50.0 mg/kg/injection, schedule: Q04DX002 (ip), vehicle: Klucel (hydroxypropylcellulose) (HPC)",97 % of control
same,T/C,[13],101 % of control
COC(=O)c1ccccc1NC(=O)Nc1cc([N+](=O)[O-])ccc1OC,T/C,[2],90 % of control
same,T/C,[4],97 % of control
same,T/C,[6],108 % of control
CC(C)c1oc2ccccc2c1C(=O)c1ccncc1,T/C,"dose: 75.0 mg/kg/injection, schedule: Q04DX003 (ip), vehicle: saline with Tween-80",97 % of control
same,T/C,"dose: 150.0 mg/kg/injection, schedule: Q04DX003 (ip), vehicle: saline with Tween-80",101 % of control
same,T/C,"dose: 300.0 mg/kg/injection, schedule: Q04DX003 (ip), vehicle: saline with Tween-80",101 % of control
COc1cc(Cl)ccc1NC(=O)Oc1cccc(NC(C)=O)c1,T/C,[4],100 % of control
same,T/C,[6],89 % of control
same,T/C,[8],100 % of control
O=C1C2C(=C3CCCCC3)C=CC2C1(c1ccccc1)c1ccccc1 (centres undefined),T/C,[5],101 % of control
same,T/C,[7],95 % of control
same,T/C,[9],94 % of control
N#Cc1nn(CCCl)c(=O)c2ccccc12,T/C,"dose: 100.0 mg/kg/injection, schedule: Q01DX001 (ip), vehicle: alcohol",98 % of control
same,T/C,"dose: 100.0 mg/kg/injection, schedule: Q04DX003 (ip), vehicle: alcohol",95 % of control
same,T/C,"dose: 200.0 mg/kg/injection, schedule: Q01DX001 (ip), vehicle: alcohol",107 % of control
same,T/C,"dose: 200.0 mg/kg/injection, schedule: Q04DX003 (ip), vehicle: alcohol",97 % of control
same,T/C,"dose: 400.0 mg/kg/injection, schedule: Q01DX001 (ip), vehicle: alcohol",107 % of control
same,T/C,"dose: 400.0 mg/kg/injection, schedule: Q04DX003 (ip), vehicle: alcohol",87 % of control
CCCC(C(=O)O)N(C)Cc1ccccc1 (centres undefined),T/C,"dose: 100.0 mg/kg/injection, schedule: Q01DX009 (ip), vehicle: acetone",92 % of control
same,T/C,"dose: 200.0 mg/kg/injection, schedule: Q01DX009 (ip), vehicle: acetone",101 % of control
same,T/C,"dose: 400.0 mg/kg/injection, schedule: Q01DX009 (ip), vehicle: acetone",97 % of control
CCC(NC(=O)OCc1ccccc1)C(=O)NC(C(=O)OCc1ccccc1)C(C)CC (centres undefined) (Cbz-[Abu]-Ile-OBn; configuration not given here),T/C,[14],92 % of control
same,T/C,[15],92 % of control
same,T/C,[16],93 % of control
c1ccc2c(c1)NC1CCCCC21 (centres undefined),T/C,[10],90 % of control
same,T/C,[11],97 % of control
same,T/C,[12],93 % of control
O=C(O)CNC(=O)c1ccc(C(=O)NCC(=O)O)cc1,T/C,"dose: 100.0 mg/kg/injection, schedule: Q04DX003 (ip), vehicle: saline",106 % of control
same,T/C,"dose: 200.0 mg/kg/injection, schedule: Q04DX003 (ip), vehicle: saline",105 % of control
same,T/C,"dose: 400.0 mg/kg/injection, schedule: Q04DX003 (ip), vehicle: saline",97 % of control
O=C1CCCC/C1=C/c1ccccc1Cl,T/C,[4],97 % of control
same,T/C,[5],104 % of control
same,T/C,[6],105 % of control
same,T/C,[7],104 % of control
same,T/C,[8],100 % of control
same,T/C,[9],97 % of control
O=C(CNC(=O)c1ccccc1)N/N=C/c1ccc(Cl)cc1Cl,T/C,[17],94 % of control
same,T/C,"dose: 200.0 mg/kg/injection, schedule: Q01DX009 (ip), vehicle: saline with Tween-80",89 % of control
same,T/C,"dose: 400.0 mg/kg/injection, schedule: Q01DX009 (ip), vehicle: saline with Tween-80",98 % of control
O=[N+]([O-])c1ccc2nc3c(nc2c1)-c1cccc2cccc-3c12,T/C,"dose: 25.0 mg/kg/injection, schedule: Q01DX009 (ip), vehicle: saline with Tween-80",89 % of control
same,T/C,"dose: 50.0 mg/kg/injection, schedule: Q01DX009 (ip), vehicle: saline with Tween-80",91 % of control
same,T/C,[17],94 % of control
same,T/C,[14],97 % of control
same,T/C,[15],97 % of control
same,T/C,[16],103 % of control
C1O[C@@H]1[C@H]1CO1,T/C,"dose: 9.5 mg/kg/injection, schedule: Q01DX001 (ip), vehicle: saline",100 % of control
same,T/C,"dose: 19.0 mg/kg/injection, schedule: Q01DX001 (ip), vehicle: saline",97 % of control
same,T/C,"dose: 38.0 mg/kg/injection, schedule: Q01DX001 (ip), vehicle: saline",101 % of control
CC1CC(C#N)C(CCC#N)CC1C (centres undefined),T/C,[4],104 % of control
same,T/C,[5],93 % of control
same,T/C,[6],106 % of control
same,T/C,[7],102 % of control
same,T/C,[9],100 % of control
CCCC1=NNc2n[nH]c(=S)n2N1,T/C,"dose: 12.5 mg/kg/injection, schedule: Q01DX009 (ip), vehicle: Klucel (hydroxypropylcellulose) (HPC)",93 % of control
same,T/C,[1],90 % of control
same,T/C,[2],98 % of control
same,T/C,[5],100 % of control
same,T/C,[7],96 % of control
